Test systems include SW-620 colon; MOLT-4 leukemia; EKVX NSCLC; HOP-62 NSCLC; SR leukemia; NCI-H522 lung; NCI-H23 lung; MDA-MB-435.
What all share (assay): NCI-60 cell line screen, 48 h

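Method: 48-hour compound exposure of cells in 96-well plates, five concentrations, linear interpolation of endpoints. At the GI50, growth is halved. TGI is the concentration that stops growth completely.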

From PubChem BioAssay (NCI) come the findings set out here.

With `Nc1nc(Cl)nc2c1ncn2C1CCC(COP(=O)(O)OP(=O)(O)OP(=O)(O)O)O1` (centres undefined), the TGI in the assay with SW-620 colon is above 100 µM; with MOLT-4 leukemia it was above 100 µM; with EKVX NSCLC, above 100 µM; in the assay with HOP-62 NSCLC it was 51.1 µM; in the assay on SR leukemia, above 100 µM; in the assay on NCI-H522 lung, above 100 µM. In addition, the TGI stood at 41.6 µM in the assay with NCI-H23 lung and 58.1 µM in the assay on MDA-MB-435.

As to `O=C(Nc1ccc(O)c(NS(=O)(=O)c2ccc(F)cc2)c1)c1ccc(-c2ccccc2)cc1`, the GI50 in the assay on SW-620 colon is 7.23 µM; with MOLT-4 leukemia it was 2.58 µM; in the assay on EKVX NSCLC, 7.17 µM; in the assay with HOP-62 NSCLC it was 19.9 µM; in the assay with SR leukemia it was 2.47 µM; in the assay on NCI-H522 lung, 2.27 µM. In addition, the GI50 with NCI-H23 lung is 10.5 µM; in the assay on MDA-MB-435, 8.12 µM. Moreover, the TGI with SW-620 colon worked out at 22.2 µM; in the assay with MOLT-4 leukemia it was 11 µM; with EKVX NSCLC, 26.4 µM; in the assay with HOP-62 NSCLC it was 40.2 µM; with SR leukemia, 9.3 µM; in the assay on NCI-H522 lung, 8.7 µM. Besides, the TGI in the assay on NCI-H23 lung worked out at 24.3 µM; in the assay on MDA-MB-435, 26 µM.

As for `O=C(Nc1ccc(Cl)cc1F)c1cc(Cl)ccc1O`, the GI50 with SW-620 colon is 0.7 µM; in the assay with MOLT-4 leukemia, 1.14 µM; in the assay on EKVX NSCLC it was 0.891 µM; in the assay with HOP-62 NSCLC it was 0.999 µM; in the assay with SR leukemia it was 2.2 µM; with NCI-H522 lung it was 0.337 µM. The figures for the GI50 in the assay with NCI-H23 lung and in the assay with MDA-MB-435 were 0.294 µM and 0.499 µM, respectively. In addition, the TGI was above 22.5 µM in the assay on SW-620 colon; 3.99 µM in the assay with MOLT-4 leukemia; 8.27 µM in the assay on EKVX NSCLC; above 24.5 µM in the assay on HOP-62 NSCLC; above 49.3 µM with SR leukemia; 1.91 µM in the assay on NCI-H23 lung. In addition, the TGI with MDA-MB-435 stood at 5.26 µM.

Regarding `Cc1nn(-c2ccccc2)c(C)c1/C=N/N1CCN(Cc2ccccc2)CC1`, the GI50 with SW-620 colon was above 100 µM; with MOLT-4 leukemia, 26.8 µM; in the assay with EKVX NSCLC, above 100 µM; in the assay on HOP-62 NSCLC it was 16.3 µM; in the assay on SR leukemia it was 13.8 µM; with NCI-H522 lung, 78.5 µM. The values for the GI50 in the assay on NCI-H23 lung and with MDA-MB-435 were 41.7 µM and above 100 µM, respectively. Besides, the TGI in the assay with SW-620 colon is above 100 µM; in the assay with MOLT-4 leukemia, 55.2 µM; with EKVX NSCLC, above 100 µM; in the assay with HOP-62 NSCLC, 74.4 µM; in the assay with SR leukemia, 35.1 µM; with NCI-H522 lung, above 100 µM. The TGI in the assay on NCI-H23 lung and in the assay on MDA-MB-435 was above 100 µM throughout.

Consider `CNC(=O)c1c(NC(=O)c2ccc(C(C)C)cc2)sc2c1CCC(=O)C2`, for which the GI50 was 0.125 µM in the assay on SW-620 colon; 0.5 µM in the assay with MOLT-4 leukemia; 0.719 µM in the assay with EKVX NSCLC; 3.41 µM with HOP-62 NSCLC; 0.273 µM with SR leukemia; 0.149 µM with NCI-H522 lung. The figures for the GI50 in the assay on NCI-H23 lung and in the assay with MDA-MB-435 were 0.418 µM and 1.07 µM, respectively. In addition, the TGI in the assay on SW-620 colon worked out at 1.32 µM; in the assay with MOLT-4 leukemia, 7.91 µM; in the assay on EKVX NSCLC, 2.74 µM; with HOP-62 NSCLC it was 18.4 µM; in the assay on SR leukemia it was 4.45 µM; in the assay on NCI-H522 lung, 1.04 µM. The values for the TGI in the assay with NCI-H23 lung and in the assay on MDA-MB-435 were 3.92 µM and 3.93 µM, respectively.

As to `COc1cc(/C=N/Nc2ncnc3c2cnn3Cc2ccccc2)ccc1O`, the GI50 is above 25 µM in the assay with SW-620 colon; above 25 µM with MOLT-4 leukemia; above 25 µM with EKVX NSCLC; 5.24 µM with HOP-62 NSCLC; above 25 µM in the assay on SR leukemia; 5.37 µM with NCI-H522 lung. For the same compound, the GI50 was 11.9 µM in the assay with NCI-H23 lung and above 23.1 µM with MDA-MB-435. In addition, the TGI in the assay with SW-620 colon is above 25 µM; in the assay with MOLT-4 leukemia it was above 25 µM; in the assay with EKVX NSCLC, above 25 µM; in the assay on HOP-62 NSCLC, 11.8 µM; with SR leukemia it was above 25 µM; in the assay on NCI-H522 lung, above 22.8 µM. Moreover, the TGI in the assay with NCI-H23 lung and in the assay with MDA-MB-435 was above 25 µM each time.

Consider `CC(=O)Nc1ccc(S(=O)(=O)c2ccc(NC(C)=O)cc2)cc1`, for which the GI50 in the assay on SW-620 colon was above 100 µM; in the assay with MOLT-4 leukemia, above 100 µM; in the assay with EKVX NSCLC, 64 µM; in the assay on HOP-62 NSCLC, above 100 µM; with SR leukemia, above 100 µM; in the assay with NCI-H522 lung it was above 100 µM. The GI50 in the assay with NCI-H23 lung and in the assay on MDA-MB-435 was above 100 µM in each case. Further, the TGI with SW-620 colon, in the assay on MOLT-4 leukemia, in the assay on EKVX NSCLC, with HOP-62 NSCLC, in the assay on SR leukemia and with NCI-H522 lung was above 100 µM throughout. The TGI in the assay on NCI-H23 lung and in the assay on MDA-MB-435 was above 100 µM in each case.

Take `O=C1C(Cl)=C(Nc2ccccn2)C(=O)c2ccccc21`: the GI50 was 2.29 µM with SW-620 colon; 2.79 µM in the assay on MOLT-4 leukemia; 17.2 µM in the assay with EKVX NSCLC; 2.57 µM with HOP-62 NSCLC; 2.49 µM in the assay on SR leukemia; 1.89 µM in the assay on NCI-H522 lung. For the same compound, the GI50 is 2.18 µM in the assay with NCI-H23 lung and 2.02 µM in the assay on MDA-MB-435. The TGI in the assay with SW-620 colon stood at 5.16 µM; with MOLT-4 leukemia it was 6.6 µM; with EKVX NSCLC it was 49.4 µM; in the assay with HOP-62 NSCLC it was 6.15 µM; with SR leukemia, 5.32 µM; with NCI-H522 lung, 3.69 µM. Further, the TGI in the assay with NCI-H23 lung was found to be 7.4 µM; with MDA-MB-435, 3.96 µM.
